# Molecular target: Recombinant human BACE-1 (Homo sapiens (Human), UniProt P56817)
# Test: Assay of β-secretase-inhibiting activity;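 also: enzyme cleavage of a biotinylated, Europium cryptate-labelled peptide substrate, incubated 3 h at 30 °C, then probed with Streptavidin-XL665 in KF-containing phosphate buffer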
# Type: biochemical
# Settings: Recombinant human BACE-1, Table 139; read-out: IC50
# Recombinant human BACE-1, sequence (P56817 46-501): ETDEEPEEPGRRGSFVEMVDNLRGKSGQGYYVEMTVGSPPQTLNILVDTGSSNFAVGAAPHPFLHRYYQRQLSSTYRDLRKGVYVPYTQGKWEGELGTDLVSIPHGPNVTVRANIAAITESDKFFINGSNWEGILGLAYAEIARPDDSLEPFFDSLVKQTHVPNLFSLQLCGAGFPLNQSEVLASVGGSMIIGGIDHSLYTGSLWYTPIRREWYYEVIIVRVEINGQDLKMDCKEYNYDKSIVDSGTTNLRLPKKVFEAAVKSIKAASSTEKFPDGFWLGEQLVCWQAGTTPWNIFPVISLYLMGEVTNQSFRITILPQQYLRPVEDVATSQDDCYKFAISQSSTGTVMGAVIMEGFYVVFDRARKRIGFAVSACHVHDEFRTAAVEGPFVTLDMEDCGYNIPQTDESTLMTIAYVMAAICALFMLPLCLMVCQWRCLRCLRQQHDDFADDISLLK
row,IC50,Structure (SMILES)
1,4850 nM,C[C@@]1(c2cccc(N/C(=N/O)c3ncc(Cl)cc3Cl)c2)CCSC(N)=N1 [Compound 26]

# Same assay, conditions: Recombinant human BACE-1, same assay, table; read-out: IC50
row,IC50,Structure (SMILES)
1,200 nM,C[C@@]1(c2cc(NC(=O)c3cnc(NCC#N)cn3)ccc2F)CCSC(N)=N1 [Compound 701]

# Same assay, conditions: substrate peptide 18 nM, BACE-1 7.4 nM, pH 5.0, 30° C., 3 hours; read-out: IC50 values
row,Structure (SMILES),IC50
1,Cc1nc(Br)sc1C(=O)Nc1cccc([C@]2(C)CCSC(N)=N2)c1 [Compound 6],≤ 1000 nM
2,Cc1nc(C)c(C(=O)Nc2cccc([C@]3(C)CCSC(N)=N3)c2)s1 [Compound 8],≤ 1000 nM
3,Cc1nc(C(=O)Nc2cccc([C@]3(C)CCSC(N)=N3)c2)cs1 [Compound 10],≤ 1000 nM
4,COc1cnc(C(=O)Nc2cccc([C@]3(C)CCSC(N)=N3)c2)c(N)n1 [Compound 29],≤ 1000 nM
5,COCCOc1cnc(C(=O)Nc2cc(F)c(F)c([C@]3(C)CCSC(N)=N3)c2)cn1 [Compound 148],≤ 1000 nM
6,Cc1nc(C(=O)Nc2cncc([C@]3(C)CCSC(N)=N3)c2)c(C)o1 [Compound 461],≤ 1000 nM
7,Cc1cnc(C(=O)Nc2cc([C@]3(C)CCSC(N)=N3)c3oc(C)cc3c2)cn1 [Compound 468],≤ 1000 nM
8,Cn1nc(Cl)cc1C(=O)Nc1cncc([C@]2(C)CCSC(N)=N2)c1 [Compound 478],≤ 1000 nM
9,Cc1nc(C(=O)Nc2ccc(F)c([C@]3(C)CCSC(N)=N3)c2)cs1 [Compound 505],≤ 1000 nM
10,Cc1cc(C(=O)Nc2ccc(F)c([C@]3(C)CCSC(N)=N3)c2)n(C(C)(C)C)n1 [Compound 538],≤ 1000 nM
11,Cc1cnc(C(=O)Nc2cccc([C@]3(C)CCSC(N)=N3)c2)cn1 [Compound 563],≤ 1000 nM
12,C[C@@]1(c2cncc(NC(=O)c3cnc(Cl)cn3)c2)CCSC(N)=N1 [Compound 597],≤ 1000 nM
13,C[C@@]1(c2ccnc(NC(=O)c3ccc(Cl)cn3)c2)CCSC(N)=N1 [Compound 598],≤ 1000 nM
14,C[C@@]1(c2cccc(NC(=O)c3ccc(Cl)cn3)n2)CCSC(N)=N1 [Compound 599],≤ 1000 nM
15,CC1(C)C[C@@](C)(c2cc(NC(=O)c3coc(Cl)n3)ccc2F)N=C(N)S1 [Compound 645],≤ 1000 nM
16,Cc1nc(C(=O)Nc2ccc(F)c([C@@]3(C)N=C(N)SCC3(C)C)c2)co1 [Compound 648],≤ 1000 nM
17,Cc1cn2cc(C(=O)Nc3ccc(F)c([C@]4(C)CCSC(N)=N4)c3)ncc2n1 [Compound 652],≤ 1000 nM
18,Cc1nc(C(=O)Nc2ccnc([C@]3(C)CC(C)(C)SC(N)=N3)c2)co1 [Compound 654],≤ 1000 nM
19,CC1(C)C[C@@](C)(c2cc(NC(=O)c3ncccc3F)ccn2)N=C(N)S1 [Compound 655],≤ 1000 nM
20,Cc1nc(C(=O)Nc2ccc(F)c([C@@]3(C)N=C(N)SCC3(F)F)c2)co1 [Compound 664],≤ 1000 nM
21,CCCCc1ccc(C(=O)Nc2ccc(F)c([C@@]3(C)N=C(N)SCC3(F)F)c2)nc1 [Compound 665],≤ 1000 nM
22,Cc1cnc(C(=O)Nc2ccc(F)c([C@@]3(C)N=C(N)SCC34CC4)c2)cn1 [Compound 674],≤ 1000 nM
23,COc1cnc(C(=O)Nc2ccc(F)c([C@@]3(C)N=C(N)SCC3=O)c2)cn1 [Compound 689],≤ 1000 nM
24,CC1(C)C[C@@](C)(c2cccc(NC(=O)c3ccc(C#N)cn3)c2)N=C(N)S1 [Compound 696],≤ 1000 nM

# The remaining lines, values ahead:
row,IC50,Structure (SMILES)
1,≤ 1000 nM,C[C@@]1(c2cc(NC(=O)c3cnc(N=NN)cn3)ccc2F)CCSC(N)=N1 [Compound 79]
2,≤ 1000 nM,C[C@@]1(c2cc(NC(=O)c3ncc(O)cc3F)ccc2F)CCSC(N)=N1 [Compound 491]
3,≤ 1000 nM,C[C@@]1(c2cc(NC(=O)c3cn4ccccc4n3)ccc2F)CCSC(N)=N1 [Compound 502]
4,≤ 1000 nM,CC1(c2cc(NC(=O)c3cnc(Cl)cn3)ccc2Br)CCSC(N)=N1 (stereo not shown) [Compound 517]
5,≤ 1000 nM,CC(=O)c1ccc(C(=O)Nc2ccc(F)c([C@]3(C)CCSC(N)=N3)c2)s1 [Compound 530]
6,≤ 1000 nM,C[C@@]1(c2cc(NC(=O)c3cnc(-c4ccsc4)cn3)ccc2F)CCSC(N)=N1 [Compound 537]
7,≤ 1000 nM,C[C@@]1(c2cc(NC(=O)c3ccc(OCC(N)=O)cn3)ccc2F)CCSC(N)=N1 [Compound 559]
8,≤ 1000 nM,C[C@@]1(c2cc(NC(=O)c3ccc(OCC#CCN)cn3)ccc2F)CCSC(N)=N1 [Compound 566]
9,≤ 1000 nM,Cc1cnn(-c2cnc(C(=O)Nc3ccc(F)c([C@]4(C)CCSC(N)=N4)c3)cn2)c1 [Compound 577]
10,≤ 1000 nM,CC1(C)C[C@@](C)(c2cc(NC(=O)c3ccc(O)cn3)ccc2F)N=C(N)S1 [Compound 650]
11,≤ 1000 nM,C[C@]1(c2cc(NC(=O)c3ncccc3F)ccc2F)N=C(N)SCC1(F)F [Compound 660]
12,≤ 1000 nM,Cc1cnc(C(=O)Nc2ccc(F)c([C@@]3(C)N=C(N)SCC3(F)F)c2)cn1 [Compound 662]
13,≤ 1000 nM,COc1nc(C(=O)Nc2ccc(F)c([C@]3(C)CCSC(N)=N3)c2)co1 [Compound 667]
14,≤ 1000 nM,C[C@@]1(c2cc(NC(=O)c3coc(C(F)(F)F)n3)ccc2F)CCSC(N)=N1 [Compound 669]
